{
  "source": "paper PMC10472371",
  "about": "“Discovery of E2730, a novel selective uncompetitive GAT1 inhibitor, as a candidate for anti‐seizure medication” (Epilepsia Open, 2023)",
  "key": {"[1]": {"target": "T1, hGAT2 (Homo sapiens, UniProt Q9NSD5)", "T1 construct": "expressed in transfected cells; host or cells: HEK293", "T1 sequence (Q9NSD5 1-602)": "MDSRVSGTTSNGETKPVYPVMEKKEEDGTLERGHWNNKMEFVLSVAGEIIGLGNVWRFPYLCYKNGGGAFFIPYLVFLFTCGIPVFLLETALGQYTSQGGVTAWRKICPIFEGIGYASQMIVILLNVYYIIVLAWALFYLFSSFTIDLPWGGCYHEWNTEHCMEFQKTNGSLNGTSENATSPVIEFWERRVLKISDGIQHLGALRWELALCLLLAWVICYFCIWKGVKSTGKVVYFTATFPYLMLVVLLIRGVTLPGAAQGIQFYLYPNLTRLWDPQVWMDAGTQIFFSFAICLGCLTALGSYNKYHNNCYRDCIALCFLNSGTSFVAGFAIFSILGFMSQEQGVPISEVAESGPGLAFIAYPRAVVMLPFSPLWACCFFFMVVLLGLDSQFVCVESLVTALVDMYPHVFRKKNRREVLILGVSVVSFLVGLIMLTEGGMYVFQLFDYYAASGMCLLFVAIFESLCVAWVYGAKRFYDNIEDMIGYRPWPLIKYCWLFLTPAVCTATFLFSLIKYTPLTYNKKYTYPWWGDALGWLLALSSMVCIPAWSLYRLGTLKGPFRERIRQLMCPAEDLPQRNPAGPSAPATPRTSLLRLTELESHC", "assay": "[3H]GABA uptake in hGAT2 stably expressing HEK293 cells", "format": "cell-based", "settings": "50 μM [3H]GABA", "method": "(§1) HEK293 cells stably expressing human GAT1 (hGAT1), GAT2 (hGAT2), GAT3 (hGAT3), or betaine/GABA transporter 1 (hBGT‐1) were plated onto 96‐well microtiter plates at a density of 4.0 × 10^4 cells/well in Dulbecco's Modified Eagle's Medium (DMEM, containing 10% fetal bovine serum, 100 units/mL penicillin, 100 μg/mL streptomycin, 1% non‐essential amino acid solution, and 25 mM HEPES) and incubated overnight at 37°C in a 5% CO2 atmosphere. After washing the cells with Hanks’ balanced salt solution (HBSS, containing 140 mg/L CaCl2, 100 mg/L MgCl2, 20 mM HEPES, and 10 mM NaOH), E2730 (0.0128–1000 μM) was added to the plate. Following the addition of 50 μM [^3H]GABA, cells were incubated for 5 minutes at 37°C in a 5% CO2 atmosphere and then washed with cold HBSS. Washed cells were incubated in a scintillator for 1 hour at room temperature, followed by radioactivity measurements using a liquid scintillation counter."}, "[2]": {"test_system": "extracellular GABA concentration in mouse hippocampus", "assay": "Microdialysis: extracellular GABA concentration in mouse hippocampus", "format": "in vivo", "method": "A guide cannula was implanted in the left hippocampus (2.7 mm posterior, 3.3 mm left, and 1.8 mm below from the bregma) of ddY mice (male, 5 weeks old). After 5–7 days of recovery, a microdialysis probe (Eicom) was inserted into the left hippocampus through the guide cannula. The tip of the microdialysis probe reached 4.8 mm below the bregma. The next day, the probe was connected to a perfusion tube and perfused with Ringer solution (containing 147.0 mM NaCl, 4.7 mM KCl, 0.6 mM MgSO4, 2.5 mM CaCl2, 5.0 mM HEPES, pH 7.4) at a flow rate of 1.5 μL/min. After ≥160 minutes of perfusion, collection of the perfusate (30 μL/20 min/fraction) was initiated, and 12 fractions per animal were collected for 240 minutes. E2730 (10–100 mg/kg), tiagabine (3–30 mg/kg), or vehicle was orally administered 72 minutes after initiating sample collection. Tiagabine was used as a reference ASM of a non‐competitive GAT1 inhibitor. Perfusate was switched from Ringer solution to high‐potassium Ringer solution (51.7 mM NaCl, 100.0 mM KCl, 0.6 mM MgSO4, 2.5 mM CaCl2, 5.0 mM HEPES, pH 7.4) after 127 minutes following the collection. GABA concentration in each sample was measured by a high‐performance liquid chromatography with tandem mass spectrometry method."}, "[3]": {"test_system": "panel of 86 receptors, transporters, and ion channels", "assay": "Binding panel assay", "settings": "tested at 30 and 300 μM", "method": "In this binding panel assay, E2730 was tested at 30 and 300 μM."}, "[4]": {"target": "T2, human brain synaptosomal membranes (Homo sapiens, UniProt P30531)", "T2 construct": "from tissue; host or cells: human cerebral cortex; synaptosomal membranes", "T2 sequence (P30531 whole entry)": "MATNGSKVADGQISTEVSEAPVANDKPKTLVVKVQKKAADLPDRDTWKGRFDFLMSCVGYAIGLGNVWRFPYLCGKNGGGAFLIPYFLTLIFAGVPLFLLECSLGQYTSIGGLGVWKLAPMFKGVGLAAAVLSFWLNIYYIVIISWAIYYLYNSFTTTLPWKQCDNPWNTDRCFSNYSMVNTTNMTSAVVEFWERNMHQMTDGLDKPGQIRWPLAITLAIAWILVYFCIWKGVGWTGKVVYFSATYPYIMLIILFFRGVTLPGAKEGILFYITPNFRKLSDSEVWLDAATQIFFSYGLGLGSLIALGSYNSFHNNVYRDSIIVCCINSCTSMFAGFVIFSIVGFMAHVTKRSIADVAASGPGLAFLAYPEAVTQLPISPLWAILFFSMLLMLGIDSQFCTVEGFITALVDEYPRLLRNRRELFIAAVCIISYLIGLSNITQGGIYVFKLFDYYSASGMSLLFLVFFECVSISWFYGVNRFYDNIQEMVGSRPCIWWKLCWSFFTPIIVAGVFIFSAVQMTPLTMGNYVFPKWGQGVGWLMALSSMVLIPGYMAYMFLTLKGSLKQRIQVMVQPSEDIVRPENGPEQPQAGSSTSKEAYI", "assay": "Saturation binding of [3H]E2730 in human brain synaptosomal membranes", "method": "Synaptosomal membranes were prepared using the whole brain without cerebellum, brainstem, or olfactory bulb from Sprague Dawley rats (male, 7 weeks old) or human cerebral cortex based on Fuks et al.[10] and Hanada et al.[11] Synaptosomal membranes (0.4 mg protein/tube) were incubated with 9.8–5000 nM [^3H]E2730 for 120 minutes at 4°C. Non‐specific binding was defined as the residual binding observed in the presence of 1 mM unlabeled E2730. […] The filters were washed three times with ice‐cold 50 mM Tris–HCl buffer (pH 7.4) and incubated overnight in a scintillator (PerkinElmer), then the radioactivity was measured by a liquid scintillation counter (PerkinElmer)."}, "[5]": {"target": "T3, hGAT1 (Homo sapiens, UniProt P30531)", "T3 construct": "expressed in transfected cells; host or cells: HEK293", "T3 sequence (P30531 whole entry)": "as above", "assay": "[3H]GABA uptake in hGAT1 stably expressing HEK293 cells", "format": "cell-based", "settings": "50 μM [3H]GABA", "method": "as §1"}, "[6]": {"target": "T4, hBGT-1 (Homo sapiens, UniProt P48065)", "T4 construct": "expressed in transfected cells; host or cells: HEK293", "T4 sequence (P48065 1-614)": "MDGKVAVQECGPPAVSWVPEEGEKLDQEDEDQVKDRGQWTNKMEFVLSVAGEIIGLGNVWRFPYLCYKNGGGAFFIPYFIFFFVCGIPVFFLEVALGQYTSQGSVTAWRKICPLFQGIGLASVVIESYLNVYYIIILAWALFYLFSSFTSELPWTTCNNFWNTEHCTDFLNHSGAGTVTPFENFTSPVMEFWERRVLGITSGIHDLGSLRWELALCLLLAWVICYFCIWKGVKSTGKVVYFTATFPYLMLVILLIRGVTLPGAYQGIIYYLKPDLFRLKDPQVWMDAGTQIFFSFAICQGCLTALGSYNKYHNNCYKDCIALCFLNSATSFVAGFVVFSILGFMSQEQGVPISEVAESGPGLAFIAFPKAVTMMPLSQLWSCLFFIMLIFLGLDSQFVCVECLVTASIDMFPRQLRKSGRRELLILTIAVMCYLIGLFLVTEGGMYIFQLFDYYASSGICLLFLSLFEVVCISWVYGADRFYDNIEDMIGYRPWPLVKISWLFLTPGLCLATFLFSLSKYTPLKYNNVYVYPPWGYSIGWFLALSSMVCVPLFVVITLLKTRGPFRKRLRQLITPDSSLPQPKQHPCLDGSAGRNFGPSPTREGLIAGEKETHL", "assay": "[3H]GABA uptake in hBGT-1 stably expressing HEK293 cells", "format": "cell-based", "settings": "hBGT-1 HEK293 cells, 50 μM [3H]GABA", "method": "as §1"}, "[7]": {"settings": "mouse hippocampus, oral, E2730 10-100 mg/kg, tiagabine 3-30 mg/kg"}},
  "note": "“Also recorded” adds a separate entry of the source.",
  "data": [
    {"smiles": "NS(=O)(=O)N[C@H]1c2c(F)cc(F)cc2CC1(F)F", "note": "[E2730]", "values": [
      {"measurement": "IC50", "setting": "[1]", "value": "> 1000", "unit": "µM"},
      {"measurement": "effect on high-potassium-induced extracellular GABA concentration", "setting": "[2]; E2730 10 mg/kg", "value": "not statistically significant"},
      {"measurement": "effect on high-potassium-induced extracellular GABA concentration", "setting": "[2]; E2730 30 and 100 mg/kg", "value": "significantly increased"},
      {"measurement": "effect on basal extracellular GABA concentration", "setting": "[2]; [7]", "value": "no significant difference; also recorded: did not increase; also recorded: did not affect"},
      {"measurement": "effect on high-potassium-induced extracellular GABA concentration", "setting": "[2]; [7]", "value": "significant increase"},
      {"measurement": "binding in panel assay", "setting": "[3]", "value": "no significant binding"},
      {"measurement": "Bmax", "setting": "[4]", "value": 2503, "unit": "fmol/mg protein"},
      {"measurement": "Kd", "setting": "[4]", "value": 0.71, "unit": "µM"},
      {"measurement": "IC50", "setting": "[5]", "value": 1.1, "unit": "µM"},
      {"measurement": "IC50", "setting": "[6]", "value": 890, "unit": "µM"}
    ]}
  ]
}
